# Measurements from patent US8815833B2, “Stable amifostine liquid concentrate” (Seidose, LLC, priority 2006, dated 2014).
# Read-outs that look alike come from different tables or passages of the source. Marks after values point to notes of the source that are not given here.
# What was measured:
# [1] = cited from earlier work
# physchem = type: physicochemical; details: for crystallization of solution: 200 mg/ml solution
# Method: Amifostine is a phospho ester compound that is used pharmacologically for the amelioration of side effects of radiation and chemotherapy. The compound is currently marketed as a lyophilizate of a crystalline trihydrate of amifostine, typically in vials of 500 mg, which is reconstituted to a final administration concentration of 5 to 40 mg/ml for IV infusion. […] Amifostine is known to undergo hydrolysis in aqueous solution at acidic, neutral, and mild basic conditions. Thus, it was believed that stable aqueous formulations that would not hydrolyze to any appreciable extent over typical storage time periods were not likely to be found. […] Thus, aqueous liquid concentrates of amifostine were simply thought not possible. Because such an aqueous liquid amifostine concentrate would eliminate a potential source of dosing errors in clinical practice, there is clearly a need for the same.
# (§1) At pH 9.0, 50% of the amifostine is present as the double zwitterion and 50% of amine 1 (primary amine) is present as the free base form making 50% of the amifostine have a net negative charge. At pH 10.0, only 10% of amifostine is present as a double zwitterion and the other 90% has a net negative charge; amine 1 is mainly in the free base form. […] Approximately 1% is present as the double zwitterion. More importantly, 17% of amifostine has both amines in the un-ionized form as free bases and this particular ionic species of the molecule carries about −2 charge. At this pH (11), it is observed that there is a significant improvement in the stability. […] At pH 13, over 95% of the amifostine is present with both amines in their free base forms with improved stability.
# [2] = Hydrolysis of amifostine to free thiol metabolite as function of pH (stability evaluations); type: physicochemical
# From the text: At pH 7.4, the intrinsic pH, amifostine has a net neutral charge as a double zwitterion with the phosphate completely dissociated (−2) and the amino groups fully protonated (+2). During stability evaluations carried out for the purposes of the present invention it was observed that the hydrolysis of amifostine to release free thiol metabolite is rapid at acidic pH and even at weakly acidic pH. On the other hand, the hydrolysis was almost 100-fold slower at pH 10 and above.
# [3] = Merck Index, cited from earlier work
# [4] = Approximate concentration of ionic species as function of pH according to the pKa values; type: physicochemical
# From the text: There are four pKas for amifostine. The Merck Index lists them to be <2.0, 4.2, 9.0 and 11.7. The amino groups (2) and the phosphate group (2 pKa per group) can all be completely protonated. [Ref: Structure of Radio protective agent S-2(3-Aminoprpropylamino)ethylphosphorthioic acid (WR 2721) Jean Karle, Acta Cryst (1988) C44 135-138]. The usual form crystallized from solution is a double zwitterion with the phosphate completely dissociated (−2) and the amino groups fully protonated (+2). It is usually drawn with the amines in their free base form and the phosphate completely protonated but that is not how it exists in solution. So, the two pKa values from the double zwitterion are for the two amino functions ionizing (i.e., pKas 3 & 4). The first two pKas are for the phosphate which are perturbed by the two positive charges on the amino groups which pushes them lower than pKa1 and pKa2 for phosphoric acid. The following table describes the ionic nature of the compound as function of pH according to the pKa values reported in the Merck Index. The table also summarizes the approximate concentration of ionic species as function of pH:
# as §1
# [5] = Storage stability of amifostine solutions by stability indicating HPLC method (% remaining); type: physicochemical
# Method: As will be seen below in Example 1, a 250 mg/ml liquid concentrate was prepared at pH 9, and 200 mg/ml liquid concentrates were prepared at pH 10.5, 11.5, 12.5 and 13. The stability was monitored at 40° C., 25° C. and 5° C. by a stability indicating HPLC method using the following HPLC conditions:
# Solutions of amifostine at 200 mg/ml or 250 mg/ml were prepared at the pHs shown in the table below and stored at the temperatures indicated for the times indicated. “% remaining” in the table below is determined by the HPLC method described earlier in the specification.
smiles,measurement,setting,value
NCCCNCCSP(=O)(O)O [amifostine trihydrate],crystallization of solution,[1]; about 200 mg/ml solution in water stored at refrigerated conditions,substantial crystallization results
same,aqueous solubility in water,[1]; ambient conditions,about 200 mg/ml
"NCCCNCCSP(=O)(O)O [amifostine, S-2(3-Aminoprpropylamino)ethylphosphorthioic acid]",crystallization of solution,"physchem; below pH 10, refrigeration conditions",crystallizes out
same,crystallization of solution,"physchem; pH 10.0, refrigeration conditions",remained clear with no crystallization observed
same,solubility,"physchem; 5 °C, pH 10, water",~100 mg/mL
same,hydrolysis to release free thiol metabolite,[2]; acidic pH and even weakly acidic pH,rapid
same,hydrolysis slower than at acidic / weakly acidic pH,[2]; pH 10 and above,~100 fold
same,pKa,[3]; first pKa (phosphate),< 2.0
same,pKa,"[3]; fourth pKa (sec. amine, amine 2)",11.7
same,pKa,[3]; second pKa (phosphate),4.2
same,pKa,"[3]; third pKa (prim. amine, amine 1)",9.0
same,Prim. amine (pKa 9.0) Protonated,[4]; pH 7,~100%
same,Prim. amine (pKa 9.0) Unprotonated,[4]; pH 7,~0%
same,Sec. amine (pKa 11.7) Protonated,[4]; pH 7,~100%
same,Sec. amine (pKa 11.7) Unprotonated,[4]; pH 7,~0%
same,Prim. amine (pKa 9.0) Protonated,[4]; pH 9,~50%
same,Prim. amine (pKa 9.0) Unprotonated,[4]; pH 9,~50%
same,Sec. amine (pKa 11.7) Protonated,[4]; pH 9,~100%
same,Sec. amine (pKa 11.7) Unprotonated,[4]; pH 9,~0%
same,"amine 1 present as free base form, net negative charge",[4]; pH 9.0,50%
same,present as the double zwitterion,[4]; pH 9.0,50%
same,Prim. amine (pKa 9.0) Protonated,[4]; pH 10,~10%
same,Prim. amine (pKa 9.0) Unprotonated,[4]; pH 10,~90%
same,Sec. amine (pKa 11.7) Protonated,[4]; pH 10,~100%
same,Sec. amine (pKa 11.7) Unprotonated,[4]; pH 10,~0%
same,has a net negative charge (amine 1 free base),[4]; pH 10.0,90%
same,present as a double zwitterion,[4]; pH 10.0,10%
same,Prim. amine (pKa 9.0) Protonated,[4]; pH 11,~1%
same,Prim. amine (pKa 9.0) Unprotonated,[4]; pH 11,~99%
same,Sec. amine (pKa 11.7) Protonated,[4]; pH 11,~83%
same,Sec. amine (pKa 11.7) Unprotonated,[4]; pH 11,~17%
same,both amines in the un-ionized form as free bases (about -2 charge),[4]; pH 11.5 solution,17%
same,present as the double zwitterion,[4]; pH 11.5 solution,Approximately 1%
same,Prim. amine (pKa 9.0) Protonated,[4]; pH 12,~0.1%
same,Prim. amine (pKa 9.0) Unprotonated,[4]; pH 12,>99.9%
same,Sec. amine (pKa 11.7) Protonated,[4]; pH 12,~33%
same,Sec. amine (pKa 11.7) Unprotonated,[4]; pH 12,~67%
same,Prim. amine (pKa 9.0) Protonated,[4]; pH 13,~0.01%
same,Prim. amine (pKa 9.0) Unprotonated,[4]; pH 13,99.99%^
same,Sec. amine (pKa 11.7) Protonated,[4]; pH 13,<5%
same,Sec. amine (pKa 11.7) Unprotonated,[4]; pH 13,>95%
same,present with both amines in their free base forms,[4]; pH 13,over 95%
same,potency loss,"[5]; 5° C., 180-day storage, pH 12.5 and 13 formulations",≤ 3%
same,% remaining,"[5]; pH 7.4, 200 mg/ml, 25° C., 7 days",89%
same,% remaining,"[5]; pH 7.4, 200 mg/ml, 25° C., 14 days",78%
same,% remaining,"[5]; pH 7.4, 200 mg/ml, 25° C., 25 days",60%
same,% remaining,"[5]; pH 7.4, 200 mg/ml, 25° C., 33 days",52%
same,% remaining,"[5]; pH 7.4, 200 mg/ml, 40° C., 2 days",71%
same,% remaining,"[5]; pH 7.4, 250 mg/ml, 40° C., 1 day",84%
same,% remaining,"[5]; pH 7.4, 250 mg/ml, 40° C., 2 days",66%
same,% remaining,"[5]; pH 7.4, 250 mg/ml, 40° C., 3 days",57%
same,% remaining,"[5]; pH 9.0, 250 mg/ml, 5° C., 90 days",96%
same,% remaining,"[5]; pH 9.0, 250 mg/ml, 5° C., 180 days",91* %
same,% remaining,"[5]; pH 9.0, 250 mg/ml, 25° C., 10 days",83%
same,% remaining,"[5]; pH 9.0, 250 mg/ml, 25° C., 25 days",60%
same,% remaining,"[5]; pH 9.0, 250 mg/ml, 40° C., 1 day",83%
same,% remaining,"[5]; pH 10.5, 200 mg/ml, 5° C., 90 days",94%
same,% remaining,"[5]; pH 10.5, 200 mg/ml, 5° C., 180 days",90%
same,% remaining,"[5]; pH 10.5, 200 mg/ml, 25° C., 10 days",85%
same,% remaining,"[5]; pH 10.5, 200 mg/ml, 25° C., 25 days",62%
same,% remaining,"[5]; pH 10.5, 200 mg/ml, 25° C., 35 days",57%
same,% remaining,"[5]; pH 10.5, 200 mg/ml, 25° C., 60 days",39%
same,% remaining,"[5]; pH 10.5, 200 mg/ml, 40° C., 1 day",84%
same,% remaining,"[5]; pH 10.5, 200 mg/ml, 40° C., 2 days",75%
same,% remaining,"[5]; pH 11.5, 200 mg/ml, 5° C., 90 days",93%
same,% remaining,"[5]; pH 11.5, 200 mg/ml, 5° C., 180 days",92%
same,% remaining,"[5]; pH 11.5, 200 mg/ml, 25° C., 10 days",86%
same,% remaining,"[5]; pH 11.5, 200 mg/ml, 25° C., 25 days",64%
same,% remaining,"[5]; pH 11.5, 200 mg/ml, 25° C., 60 days",51%
same,% remaining,"[5]; pH 11.5, 200 mg/ml, 40° C., 1 day",90%
same,% remaining,"[5]; pH 12.5, 200 mg/ml, 5° C., 90 days",99%
same,% remaining,"[5]; pH 12.5, 200 mg/ml, 5° C., 180 days",97%
same,% remaining,"[5]; pH 12.5, 200 mg/ml, 25° C., 10 days",94%
same,% remaining,"[5]; pH 12.5, 200 mg/ml, 25° C., 32 days",86%
same,% remaining,"[5]; pH 12.5, 200 mg/ml, 25° C., 60 days",74%
same,% remaining,"[5]; pH 12.5, 200 mg/ml, 40° C., 4 days",77%
same,% remaining,"[5]; pH 13.0, Batch #1, 200 mg/ml, 5° C., 90 days",99%
same,% remaining,"[5]; pH 13.0, Batch #1, 200 mg/ml, 5° C., 180 days",98%
same,% remaining,"[5]; pH 13.0, Batch #1, 200 mg/ml, 5° C., 270 days",95%
same,% remaining,"[5]; pH 13.0, Batch #1, 200 mg/ml, 25° C., 18 days",96%
same,% remaining,"[5]; pH 13.0, Batch #1, 200 mg/ml, 25° C., 36 days",82%
same,% remaining,"[5]; pH 13.0, Batch #1, 200 mg/ml, 25° C., 60 days",74%
same,% remaining,"[5]; pH 13.0, Batch #1, 200 mg/ml, 40° C., 4 days",85-86%
same,% remaining,"[5]; pH 13.0, Batch#2, 200 mg/ml, 5° C., 90 days",100%
same,% remaining,"[5]; pH 13.0, Batch#2, 200 mg/ml, 5° C., 180 days",97%
same,% remaining,"[5]; pH 13.0, Batch#2, 200 mg/ml, 5° C., 270 days",95%
same,% remaining,"[5]; pH 13.0, Batch#2, 200 mg/ml, 25° C., 18 days",96%
same,% remaining,"[5]; pH 13.0, Batch#2, 200 mg/ml, 25° C., 36 days",82%
same,% remaining,"[5]; pH 13.0, Batch#2, 200 mg/ml, 25° C., 90 days",75%
same,% remaining,"[5]; pH 13.0, batch #3, 200 mg/ml, 5° C., 90 days",101%
same,% remaining,"[5]; pH 13.0, batch #3, 200 mg/ml, 5° C., 180 days",97%
same,% remaining,"[5]; pH 13.0, batch #3, 200 mg/ml, 5° C., 270 days",95%
same,% remaining,"[5]; pH 13.0, batch #3, 200 mg/ml, 25° C., 18 days",97%
same,% remaining,"[5]; pH 13.0, batch #3, 200 mg/ml, 25° C., 36 days",82%
same,% remaining,"[5]; pH 13.0, batch #3, 200 mg/ml, 25° C., 90 days",76%
